Measurements from ChEMBL document CHEMBL4602617, “Discovery and optimization of heteroaryl piperazines as potent and selective PI3Kδ inhibitors” (Bioorg Med Chem Lett, 2020).

Columns and labels:
[1] = target: Insulin-like growth factor 1 receptor (Homo sapiens, UniProt P08069); test: Inhibition of recombinant human His-tagged IGF1R expressed in baculovirus expression system using tyrosine 1 peptide as substrate incubated for 60 mins in presence of ATP by Z'-LYTE assay
[2] = target: Leucine-rich repeat serine/threonine-protein kinase 2 (Homo sapiens, UniProt Q5S007, G2019S); test: Inhibition of recombinant human GST-tagged LRRK2 G2019S mutant catalytic domain (970 to 2527 residues) expressed in baculovirus expression system using LRRKtide as substrate measured after 1 hr in presence of ATP by ADAPTA assay
Sequence of Leucine-rich repeat serine/threonine-protein kinase 2 (Q5S007 whole entry G2019S, the tested form may be a part): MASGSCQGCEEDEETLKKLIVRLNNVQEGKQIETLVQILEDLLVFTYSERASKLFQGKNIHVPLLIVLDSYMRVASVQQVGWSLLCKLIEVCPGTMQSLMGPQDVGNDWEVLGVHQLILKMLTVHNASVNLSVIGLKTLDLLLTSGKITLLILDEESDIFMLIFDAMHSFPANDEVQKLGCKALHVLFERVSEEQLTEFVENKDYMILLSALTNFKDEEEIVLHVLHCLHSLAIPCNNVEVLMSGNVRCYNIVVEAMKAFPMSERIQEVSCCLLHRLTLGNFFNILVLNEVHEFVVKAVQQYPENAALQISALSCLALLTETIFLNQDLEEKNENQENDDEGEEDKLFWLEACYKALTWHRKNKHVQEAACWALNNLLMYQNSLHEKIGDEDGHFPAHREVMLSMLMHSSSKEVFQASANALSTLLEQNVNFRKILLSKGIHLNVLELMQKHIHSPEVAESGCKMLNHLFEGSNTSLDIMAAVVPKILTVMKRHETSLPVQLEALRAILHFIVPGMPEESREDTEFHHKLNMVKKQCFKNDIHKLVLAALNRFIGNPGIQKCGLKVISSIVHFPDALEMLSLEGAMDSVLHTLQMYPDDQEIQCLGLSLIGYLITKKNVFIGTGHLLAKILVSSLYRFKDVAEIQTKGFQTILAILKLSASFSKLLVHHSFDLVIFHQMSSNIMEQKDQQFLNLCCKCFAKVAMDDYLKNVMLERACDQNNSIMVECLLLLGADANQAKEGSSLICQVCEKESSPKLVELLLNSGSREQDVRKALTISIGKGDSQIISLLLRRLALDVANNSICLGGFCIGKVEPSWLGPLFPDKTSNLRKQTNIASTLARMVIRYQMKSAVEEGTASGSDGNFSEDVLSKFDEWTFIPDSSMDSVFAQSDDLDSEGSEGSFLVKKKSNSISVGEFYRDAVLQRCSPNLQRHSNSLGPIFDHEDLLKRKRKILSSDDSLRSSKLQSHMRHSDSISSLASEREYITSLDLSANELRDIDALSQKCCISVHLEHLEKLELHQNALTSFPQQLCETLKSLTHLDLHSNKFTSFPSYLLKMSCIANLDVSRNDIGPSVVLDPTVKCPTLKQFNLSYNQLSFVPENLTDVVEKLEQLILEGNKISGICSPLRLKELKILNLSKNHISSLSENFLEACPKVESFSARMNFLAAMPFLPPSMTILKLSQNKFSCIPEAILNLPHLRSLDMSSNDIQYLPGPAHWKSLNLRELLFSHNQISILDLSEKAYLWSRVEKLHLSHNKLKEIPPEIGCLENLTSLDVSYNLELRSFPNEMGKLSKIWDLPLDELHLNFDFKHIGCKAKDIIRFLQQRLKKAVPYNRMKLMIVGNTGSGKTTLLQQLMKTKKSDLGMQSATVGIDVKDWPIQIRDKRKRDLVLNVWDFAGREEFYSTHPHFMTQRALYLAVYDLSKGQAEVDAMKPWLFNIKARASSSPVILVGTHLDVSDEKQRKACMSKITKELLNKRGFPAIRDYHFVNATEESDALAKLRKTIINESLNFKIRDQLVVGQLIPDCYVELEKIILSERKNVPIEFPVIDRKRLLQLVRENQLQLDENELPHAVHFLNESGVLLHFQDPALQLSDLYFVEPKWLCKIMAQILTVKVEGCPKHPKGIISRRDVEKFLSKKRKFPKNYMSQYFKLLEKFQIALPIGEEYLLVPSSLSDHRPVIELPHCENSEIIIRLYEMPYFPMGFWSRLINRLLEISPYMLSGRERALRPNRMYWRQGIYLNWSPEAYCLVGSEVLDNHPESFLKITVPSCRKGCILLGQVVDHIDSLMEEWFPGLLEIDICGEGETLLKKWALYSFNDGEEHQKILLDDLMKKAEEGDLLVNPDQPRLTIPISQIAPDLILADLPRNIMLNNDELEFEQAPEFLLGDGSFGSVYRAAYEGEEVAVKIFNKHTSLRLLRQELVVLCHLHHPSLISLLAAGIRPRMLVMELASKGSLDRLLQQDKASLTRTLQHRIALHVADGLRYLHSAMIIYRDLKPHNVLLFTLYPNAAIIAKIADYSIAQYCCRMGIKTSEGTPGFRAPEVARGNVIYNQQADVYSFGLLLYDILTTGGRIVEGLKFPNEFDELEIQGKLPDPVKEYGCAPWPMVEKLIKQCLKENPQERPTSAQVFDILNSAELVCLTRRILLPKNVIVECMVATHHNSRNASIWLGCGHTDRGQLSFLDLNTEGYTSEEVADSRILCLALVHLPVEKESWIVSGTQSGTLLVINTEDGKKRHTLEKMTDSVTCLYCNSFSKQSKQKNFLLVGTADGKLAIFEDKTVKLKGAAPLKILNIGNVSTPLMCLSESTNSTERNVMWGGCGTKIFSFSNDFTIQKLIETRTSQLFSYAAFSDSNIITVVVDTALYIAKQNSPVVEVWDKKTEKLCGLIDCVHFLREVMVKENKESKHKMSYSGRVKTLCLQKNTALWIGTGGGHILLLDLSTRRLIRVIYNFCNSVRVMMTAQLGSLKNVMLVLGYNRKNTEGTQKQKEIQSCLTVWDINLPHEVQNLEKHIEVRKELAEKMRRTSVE

[3] = target: Sphingosine kinase 2 (Homo sapiens, UniProt Q9NRA0); test: Inhibition of recombinant full length GST-tagged human SPHK2 expressed in baculovirus expression system using Sphingosine lipid as substrate in presence of ATP after 1 hr by Adapta assay
Sequence of Sphingosine kinase 2 (Q9NRA0 whole entry): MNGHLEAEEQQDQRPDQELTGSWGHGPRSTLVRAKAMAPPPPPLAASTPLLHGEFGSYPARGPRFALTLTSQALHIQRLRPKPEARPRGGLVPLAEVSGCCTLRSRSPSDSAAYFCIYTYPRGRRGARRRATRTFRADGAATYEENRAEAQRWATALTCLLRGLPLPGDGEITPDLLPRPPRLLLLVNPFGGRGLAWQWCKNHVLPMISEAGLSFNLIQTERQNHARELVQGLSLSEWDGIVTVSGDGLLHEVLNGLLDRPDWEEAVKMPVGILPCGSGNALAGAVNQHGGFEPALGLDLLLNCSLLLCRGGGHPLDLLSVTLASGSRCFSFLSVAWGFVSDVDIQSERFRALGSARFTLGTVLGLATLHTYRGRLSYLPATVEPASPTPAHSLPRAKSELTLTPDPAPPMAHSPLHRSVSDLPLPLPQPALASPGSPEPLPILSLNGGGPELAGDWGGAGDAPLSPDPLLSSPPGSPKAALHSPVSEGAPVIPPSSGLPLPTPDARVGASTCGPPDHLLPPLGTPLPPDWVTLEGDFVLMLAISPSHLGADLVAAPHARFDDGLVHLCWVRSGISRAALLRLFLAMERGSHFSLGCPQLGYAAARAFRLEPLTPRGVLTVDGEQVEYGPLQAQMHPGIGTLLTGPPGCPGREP

[4] = target: Protein kinase C gamma type (Homo sapiens, UniProt P05129); test: Inhibition of recombinant full length human GST-tagged PRKCG expressed in insect expression system using serine/threonine-7 peptide as substrate incubated for 60 mins in presence of ATP by Z'-LYTE assay
[5] = target: Fibroblast growth factor receptor 1 (Homo sapiens, UniProt P11362); test: Inhibition of recombinant His-tagged human FGFR1 cytoplasmic domain expressed in baculovirus expression system using Tyr 04 peptide as substrate after 1 hr in presence of ATP by Z'-LYTE assay
[6] = target: Dual specificity tyrosine-phosphorylation-regulated kinase 1A (Homo sapiens, UniProt Q13627); test: Inhibition of recombinant full length human GST-tagged DYRK1A expressed in baculovirus expression system using serine/threonine-18 peptide as substrate incubated for 60 mins in presence of ATP by Z'-LYTE assay
[7] = target: Dual specificity protein kinase CLK2 (Homo sapiens, UniProt P49760); test: Inhibition of recombinant human GST-tagged CLK2 catalytic domain (137 to 498 residues) expressed in baculovirus expression system using serine/threonine-6 peptide as substrate incubated for 60 mins in presence of ATP by Z'-LYTE assay
[8] = target: Aurora kinase A (Homo sapiens, UniProt O14965); test: Inhibition of recombinant human full length AURKA expressed in baculovirus expression system using Ser/Thr-01 peptide as substrate after 1 hr in presence of ATP by Z'LYTE assay
Sequence of Aurora kinase A (O14965 whole entry): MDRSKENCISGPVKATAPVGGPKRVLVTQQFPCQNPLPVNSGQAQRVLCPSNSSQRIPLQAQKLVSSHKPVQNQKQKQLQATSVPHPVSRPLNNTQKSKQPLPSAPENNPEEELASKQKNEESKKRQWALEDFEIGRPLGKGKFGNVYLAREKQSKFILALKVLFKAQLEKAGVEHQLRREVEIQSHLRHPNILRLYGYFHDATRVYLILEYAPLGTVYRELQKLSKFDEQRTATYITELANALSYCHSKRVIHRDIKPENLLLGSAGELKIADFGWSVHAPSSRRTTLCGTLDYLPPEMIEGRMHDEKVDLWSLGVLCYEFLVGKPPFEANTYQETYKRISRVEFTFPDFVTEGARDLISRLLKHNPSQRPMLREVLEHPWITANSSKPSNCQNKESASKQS

[9] = species: Rattus norvegicus; test: Inhibition of rat P2Y receptor at 10 uM relative to control
[10] = target: Vasoactive intestinal polypeptide receptor 1 (Homo sapiens) (UniProt P32241); test: Displacement of [125I]VIP from human HT-29 cells derived VIP1 at 10 uM after 60 mins by radiometric scintillation analysis relative to control; assay type: cell-based
[11] = target: Sphingosine kinase 1 (Homo sapiens, UniProt Q9NYA1); test: Inhibition of recombinant full length human GST-tagged SPHK1 expressed in baculovirus expression system using sphingosine lipid as substrate incubated for 60 mins in presence of ATP by Adapta assay
[12] = target: NT-3 growth factor receptor (Homo sapiens, UniProt Q16288); test: Inhibition of recombinant human His-tagged TrkC cytoplasmic domain (510 to 825 residues) expressed in baculovirus using tyr 01 as substrate incubated for 1 hr in presence of ATP by Z'-Lyte assay
[13] = target: Somatostatin receptor type 2 (Homo sapiens) (UniProt P30874); test: Displacement of [125I]Tyr11-Somatostatin 14 from recombinant full length human SST2 expressed in CHO-K1 cells at 10 uM after 4 hrs by radiometric scintillation analysis relative to control; assay type: cell-based
[14] = target: Tyrosine-protein kinase Yes (Homo sapiens, UniProt P07947); test: Inhibition of full length recombinant GST-tagged human YES1 expressed in baculovirus expression system using tyr 02 peptide as substrate after 1 hr in presence of ATP by Z'-LYTE assay
[15] = target: Proto-oncogene tyrosine-protein kinase receptor Ret (Homo sapiens, UniProt P07949, V804L); test: Inhibition of recombinant human GST-tagged RET V804L mutant cytoplasmic domain expressed in baculovirus expression system using tyr02 peptide as substrate incubated for 60 mins in presence of ATP by Z'-LYTE assay
[16] = target: Protein kinase C zeta type (Homo sapiens, UniProt Q05513); test: Inhibition of recombinant full length human PKCzeta expressed in baculovirus expression system using serine/threonine-7 peptide as substrate incubated for 60 mins in presence of ATP by Z'-LYTE assay
Sequence of Protein kinase C zeta type (Q05513 whole entry): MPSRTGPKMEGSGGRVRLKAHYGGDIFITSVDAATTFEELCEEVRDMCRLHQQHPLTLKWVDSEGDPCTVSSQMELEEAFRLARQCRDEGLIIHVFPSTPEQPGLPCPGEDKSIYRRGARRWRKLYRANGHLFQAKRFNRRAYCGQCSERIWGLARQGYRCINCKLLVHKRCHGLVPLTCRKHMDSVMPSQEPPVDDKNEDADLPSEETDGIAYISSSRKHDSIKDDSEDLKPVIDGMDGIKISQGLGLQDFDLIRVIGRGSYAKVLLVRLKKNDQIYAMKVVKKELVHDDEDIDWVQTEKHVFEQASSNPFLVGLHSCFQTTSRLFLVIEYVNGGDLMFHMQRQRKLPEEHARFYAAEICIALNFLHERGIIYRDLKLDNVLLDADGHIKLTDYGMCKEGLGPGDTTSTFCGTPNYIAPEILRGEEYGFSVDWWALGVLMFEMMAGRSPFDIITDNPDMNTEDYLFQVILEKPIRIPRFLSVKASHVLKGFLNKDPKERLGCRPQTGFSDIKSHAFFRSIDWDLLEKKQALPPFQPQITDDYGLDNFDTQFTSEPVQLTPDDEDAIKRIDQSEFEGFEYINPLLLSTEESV

[17] = target: Muscarinic acetylcholine receptor M4 (Homo sapiens) (UniProt P08173); test: Displacement of [3H]N-Methylscopolamine from full length human recombinant Muscarinic M4 receptor expressed in CHOK1 cells at 10 uM measured after 120 mins by radiometric scintillation analysis relative to control; assay type: cell-based; settings: CHO-K1
[18] = target: Vasopressin V1b receptor (Homo sapiens) (UniProt P47901); test: Displacement of [3H]-(Arg8)-Vasopressin from recombinant full length human V1B receptor expressed in CHO-K1 cells at 10 uM after 120 mins by radiometric scintillation analysis relative to control; assay type: cell-based
[19] = target: Protein kinase C iota type (Homo sapiens, UniProt P41743); test: Inhibition of recombinant full length human His-tagged PRKCI expressed in baculovirus expression system using serine/threonine-7 peptide as substrate incubated for 60 mins in presence of ATP by Z'-LYTE assay
[20] = target: RAF proto-oncogene serine/threonine-protein kinase (Homo sapiens, UniProt P04049, Y340D/Y341D); test: Inhibition of recombinant human GST-tagged RAF1 Y340D Y341D mutant catalytic domain expressed in baculovirus expression system using serine/threonine-3 peptide as substrate incubated for 60 mins in presence of ATP by Z'-LYTE assay
Sequence of RAF proto-oncogene serine/threonine-protein kinase (P04049 whole entry Y340D/Y341D, the tested form may be a part): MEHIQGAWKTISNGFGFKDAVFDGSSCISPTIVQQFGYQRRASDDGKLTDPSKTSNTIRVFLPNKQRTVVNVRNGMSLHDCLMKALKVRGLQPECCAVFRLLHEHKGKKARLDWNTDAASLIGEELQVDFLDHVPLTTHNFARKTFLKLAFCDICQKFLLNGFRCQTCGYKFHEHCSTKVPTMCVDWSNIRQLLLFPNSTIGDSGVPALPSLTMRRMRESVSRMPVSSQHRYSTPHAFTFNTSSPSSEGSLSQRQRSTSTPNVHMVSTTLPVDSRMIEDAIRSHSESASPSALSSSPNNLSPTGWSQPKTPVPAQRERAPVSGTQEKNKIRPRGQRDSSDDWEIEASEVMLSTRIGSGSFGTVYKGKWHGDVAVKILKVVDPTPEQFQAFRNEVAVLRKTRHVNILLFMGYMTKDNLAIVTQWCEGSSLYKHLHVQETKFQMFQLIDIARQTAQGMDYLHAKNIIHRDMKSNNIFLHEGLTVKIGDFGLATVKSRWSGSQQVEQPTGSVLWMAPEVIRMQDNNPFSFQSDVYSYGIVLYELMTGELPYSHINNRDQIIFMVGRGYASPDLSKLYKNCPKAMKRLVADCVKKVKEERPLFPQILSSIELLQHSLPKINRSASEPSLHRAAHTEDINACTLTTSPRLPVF

[21] = target: Ribosomal protein S6 kinase alpha-5 (Homo sapiens, UniProt O75582); test: Inhibition of recombinant full length human GST-tagged RPS6KA5 expressed in baculovirus expression system using ser/Thr01 peptide as substrate incubated for 60 mins in presence of ATP by Z'-LYTE assay
[22] = target: Focal adhesion kinase 1 (Homo sapiens, UniProt Q05397); test: Inhibition of recombinant full length human GST-tagged PTK2 expressed in baculovirus expression system using tyr07 peptide as substrate incubated for 60 mins in presence of ATP by Z'-LYTE assay
[23] = target: Fibroblast growth factor receptor 4 (Homo sapiens, UniProt P22455); test: Inhibition of recombinant human His-tagged FGFR4 catalytic domain ([…]) expressed in baculovirus expression system using tyrosine-4 peptide as substrate incubated for 60 mins in presence of ATP by Z'-LYTE assay
[24] = target: Calcitonin gene-related peptide type 1 receptor (Homo sapiens) (UniProt Q16602); test: Inhibition of human AM1 receptor at 10 uM relative to control
[25] = target: G protein-coupled receptor kinase 4 (Homo sapiens, UniProt P32298); test: Inhibition of recombinant full length human GST-tagged GRK4 expressed in baculovirus expression system using serine/threonine-16 peptide as substrate incubated for 60 mins in presence of ATP by Z'-LYTE assay
[26] = target: 5-hydroxytryptamine receptor 2C (Homo sapiens) (UniProt P28335); test: Displacement of [3H]mesulergine from human recombinant 5HT2C receptor expressed in CHOK1 cells at 10 uM incubated for 60 mins by radiometric scintillation assay relative to control; assay type: cell-based; settings: CHO-K1

C[C@@H]1C[C@H]1C(=O)N1CCN(c2cnc(C#N)c(-c3cnn(C)c3)n2)C[C@H]1C
IC50 [1]: > 100 µM
IC50 [2]: > 100 µM
IC50 [3]: > 100 µM
IC50 [4]: > 100 µM
IC50 [5]: > 100 µM
IC50 [6]: > 100 µM
IC50 [7]: > 100 µM
IC50 [8]: 16 µM
inhibition [9]: 34%
inhibition [10]: 1%
IC50 [11]: 13.8 µM
IC50 [12]: > 100 µM
inhibition [13]: -5%
IC50 [14]: 37 µM
IC50 [15]: > 100 µM
IC50 [16]: > 100 µM
inhibition [17]: 3%
inhibition [18]: 6%
IC50 [19]: > 100 µM
IC50 [20]: > 100 µM
IC50 [21]: > 100 µM
IC50 [22]: > 100 µM
IC50 [23]: > 100 µM
inhibition [24]: 10%
IC50 [25]: 34.7 µM
inhibition [26]: 13%
